Source: patent US10183022B2, “Pharmaceutical composition for treating ulcerative colitis” (EA Pharma Co., Ltd., priority 2014, dated 2019)

Key:
Assay type in all cases: in vivo, human
[1] = tested on: ulcerative colitis patients in an active stage; test: Clinical study, 960 mg orally 3 times a day for 8 weeks: adverse events
Description: (§1) The compound of Example 1 or the compound of Comparative Example 1 was orally administered after meals 3 times a day. The number of the given tablets was 8 per administration (i.e., the amount of the compound (1) of Example 1 administered was 960 mg per administration). The administration period was 8 weeks. The compounds were administered until the timing after the breakfast on the day before the assessment day at Week 8.

[2] = tested on: ulcerative colitis patients in an active stage; test: Clinical study, 960 mg orally 3 times a day for 8 weeks: subscore for bloody stool of Mayo score, bloody-stool disappearance rate; parameters: Cases by subscore for bloody stool, figure in parentheses: unit not given here
Description: as §1
(2) Bloody Stool [Investigation Timings: Weeks 0, 2, 4, and 8 (or Discontinuation Time)]
Based on the contents described in the symptom-recording diaries, the investigators or sub-investigators investigated the states of bloody stool in 3 days immediately before each assessment day. Note that when the endoscopic examination on the large intestine was conducted, the investigation days were set to be the closest three days excluding the day of the endoscopic examination on the large intestine, the following day, and if a pre-treatment was performed for the endoscopic examination on the large intestine, the pre-treatment day.
The bloody stool state on the most severe day among the investigated three days was scored according to the following criteria.

[3] = tested on: ulcerative colitis patients in an active stage; test: Clinical study, 960 mg orally 3 times a day for 8 weeks: subscore for physician's global assessment of Mayo score
Description: as §1
(4) Physician's Global Assessment [Investigation Timings: Weeks 0, 2, 4, and 8 (or Discontinuation Time)]
The investigators or sub-investigators conducted a medical interview with the subjects (for abdominal discomfort, systemic state, investigator's finding, subject's impression, and so forth), and investigated the state on each assessment day.
The investigators or sub-investigators scored the physician's global assessment according to the following criteria with reference to the other three assessment criteria (stool frequency, bloody stool, and mucosal finding), as well as the abdominal discomfort, systemic state, investigator's finding, subject's impression, and so forth. Note that, on the days of the assessment performed without an endoscope, no mucosal finding was considered in scoring the physician's global assessment.

With `COC(=O)[C@H](Cc1ccc(-n2c(=O)c3cc(N(C)C)ccc3n(C)c2=O)cc1)NC(=O)c1c(Cl)cccc1Cl` [Example 1, methyl(2S)-2-(2,6-dichlorobenzamide)-3-{4-[6-(dimethylamino)-1-methyl-2,4-dioxo-1,4-dihydroquinazolin-3(2H)-yl]phenyl}propanoate] the “Safety (adverse event analysis)” value ([1]; 960 mg orally 3 times a day for 8 weeks) was “no problem in safety”, the Severe adverse events ([1]; 8-week study period) was “no severe adverse event occurred” and the “Incidence rate of moderate adverse events” value ([1]; 8-week study period (2/51 cases)) was 3.9%. The “Cases by subscore for bloody stool, figure in parentheses” value (“Cases by subscore … in parentheses” below) ([2]; Week 0, score 1) was 45.1, the “Number of cases by subscore for bloody stool” value (“Number of cases by subscore” below) ([2]; Week 0, score 1) was 23 and the “Cases by subscore … in parentheses” value ([2]; Week 0, score 2) was 47.1. The “Number of cases by subscore” value ([2]; Week 0, score 2) was 24, the “Cases by subscore … in parentheses” value ([2]; Week 0, score 3) was 7.8 and the “Number of cases by subscore” value ([2]; Week 0, score 3) was 4. For the same compound, the “Cases by subscore … in parentheses” value ([2]; Week 2, score 0) was 9.8, the “Number of cases by subscore” value ([2]; Week 2, score 0) was 5 and the “Cases by subscore … in parentheses” value ([2]; Week 2, score 1) was 54.9. For the same compound, the “Number of cases by subscore” value ([2]; Week 2, score 1) was 28, the “Cases by subscore … in parentheses” value ([2]; Week 2, score 2) was 33.3 and the “Number of cases by subscore” value ([2]; Week 2, score 2) was 17. For the same compound, the “Cases by subscore … in parentheses” value ([2]; Week 2, score 3) was 2.0, the “Number of cases by subscore” value ([2]; Week 2, score 3) was 1 and the “Number of cases, cross tabulation of subscore for bloody stool” value (“Number … of subscore for bloody stool” for short) ([2]; Week 2 score 0, Week 0 score 1) was 2. For the same compound, the “Number … of subscore for bloody stool” value ([2]; Week 2 score 0, Week 0 score 2) was 2, the “Number … of subscore for bloody stool” value ([2]; Week 2 score 0, Week 0 score 3) was 1 and the “Number … of subscore for bloody stool” value ([2]; Week 2 score 1, Week 0 score 1) was 18. For the same compound, the “Number … of subscore for bloody stool” value ([2]; Week 2 score 1, Week 0 score 2) was 8, the “Number … of subscore for bloody stool” value ([2]; Week 2 score 1, Week 0 score 3) was 2 and the “Number … of subscore for bloody stool” value ([2]; Week 2 score 2, Week 0 score 1) was 3. The “Number … of subscore for bloody stool” value ([2]; Week 2 score 2, Week 0 score 2) was 14, the “Number … of subscore for bloody stool” value ([2]; Week 2 score 2, Week 0 score 3) was 0 and the “Number … of subscore for bloody stool” value ([2]; Week 2 score 3, Week 0 score 1) was 0. The “Number … of subscore for bloody stool” value ([2]; Week 2 score 3, Week 0 score 2) was 0, the “Number … of subscore for bloody stool” value ([2]; Week 2 score 3, Week 0 score 3) was 1 and the “Cases by subscore … in parentheses” value ([2]; Week 4, score 0) was 35.3. The “Number of cases by subscore” value ([2]; Week 4, score 0) was 18, the “Cases by subscore … in parentheses” value ([2]; Week 4, score 1) was 43.1 and the “Number of cases by subscore” value ([2]; Week 4, score 1) was 22. The “Cases by subscore … in parentheses” value ([2]; Week 4, score 2) was 19.6, the “Number of cases by subscore” value ([2]; Week 4, score 2) was 10 and the “Cases by subscore … in parentheses” value ([2]; Week 4, score 3) was 2.0. For the same compound, the “Number of cases by subscore” value ([2]; Week 4, score 3) was 1, the “Number … of subscore for bloody stool” value ([2]; Week 4 score 0, Week 0 score 1) was 9 and the “Number … of subscore for bloody stool” value ([2]; Week 4 score 0, Week 0 score 2) was 8. For the same compound, the “Number … of subscore for bloody stool” value ([2]; Week 4 score 0, Week 0 score 3) was 1, the “Number … of subscore for bloody stool” value ([2]; Week 4 score 1, Week 0 score 1) was 12 and the “Number … of subscore for bloody stool” value ([2]; Week 4 score 1, Week 0 score 2) was 9. The “Number … of subscore for bloody stool” value ([2]; Week 4 score 1, Week 0 score 3) was 1, the “Number … of subscore for bloody stool” value ([2]; Week 4 score 2, Week 0 score 1) was 2 and the “Number … of subscore for bloody stool” value ([2]; Week 4 score 2, Week 0 score 2) was 7. For the same compound, the “Number … of subscore for bloody stool” value ([2]; Week 4 score 2, Week 0 score 3) was 1, the “Number … of subscore for bloody stool” value ([2]; Week 4 score 3, Week 0 score 1) was 0 and the “Number … of subscore for bloody stool” value ([2]; Week 4 score 3, Week 0 score 2) was 0. The “Number … of subscore for bloody stool” value ([2]; Week 4 score 3, Week 0 score 3) was 1, the “Difference in bloody-stool disappearance rates, Example 1 vs Comparative Example 1 (placebo)” value ([2]; Week 8) was 29.4% and the Bloody-stool disappearing cases ([2]; Week 8, 51 cases analyzed) was 25. For the same compound, the Bloody-stool disappearance rate ([2]; Week 8, all subjects) was 49.0%, the “Cases by subscore … in parentheses” value ([2]; Week 8, score 0) was 49.0 and the “Number of cases by subscore” value ([2]; Week 8, score 0) was 25. The “Cases by subscore … in parentheses” value ([2]; Week 8, score 1) was 37.3, the “Number of cases by subscore” value ([2]; Week 8, score 1) was 19 and the “Cases by subscore … in parentheses” value ([2]; Week 8, score 2) was 11.8. For the same compound, the “Number of cases by subscore” value ([2]; Week 8, score 2) was 6, the “Cases by subscore … in parentheses” value ([2]; Week 8, score 3) was 2.0 and the “Number of cases by subscore” value ([2]; Week 8, score 3) was 1. For the same compound, the “Number … of subscore for bloody stool” value ([2]; Week 8 score 0, Week 0 score 1) was 13, the “Number … of subscore for bloody stool” value ([2]; Week 8 score 0, Week 0 score 2) was 9 and the “Number … of subscore for bloody stool” value ([2]; Week 8 score 0, Week 0 score 3) was 3. The “Number … of subscore for bloody stool” value ([2]; Week 8 score 1, Week 0 score 1) was 8, the “Number … of subscore for bloody stool” value ([2]; Week 8 score 1, Week 0 score 2) was 11 and the “Number … of subscore for bloody stool” value ([2]; Week 8 score 1, Week 0 score 3) was 0. The “Number … of subscore for bloody stool” value ([2]; Week 8 score 2, Week 0 score 1) was 2, the “Number … of subscore for bloody stool” value ([2]; Week 8 score 2, Week 0 score 2) was 4 and the “Number … of subscore for bloody stool” value ([2]; Week 8 score 2, Week 0 score 3) was 0. For the same compound, the “Number … of subscore for bloody stool” value ([2]; Week 8 score 3, Week 0 score 1) was 0, the “Number … of subscore for bloody stool” value ([2]; Week 8 score 3, Week 0 score 2) was 0 and the “Number … of subscore for bloody stool” value ([2]; Week 8 score 3, Week 0 score 3) was 1. For the same compound, the “Number of cases, cross tabulation of subscore for physician's global assessment” value (from here on “Number … for physician's global assessment”) ([3]; Week 2 score 0, Week 0 score 0) was 0, the “Number … for physician's global assessment” value ([3]; Week 2 score 0, Week 0 score 1) was 0 and the “Number … for physician's global assessment” value ([3]; Week 2 score 0, Week 0 score 2) was 3. The “Number … for physician's global assessment” value ([3]; Week 2 score 0, Week 0 score 3) was 0, the “Number … for physician's global assessment” value ([3]; Week 2 score 1, Week 0 score 0) was 0 and the “Number … for physician's global assessment” value ([3]; Week 2 score 1, Week 0 score 1) was 3. The “Number … for physician's global assessment” value ([3]; Week 2 score 1, Week 0 score 2) was 19, the “Number … for physician's global assessment” value ([3]; Week 2 score 1, Week 0 score 3) was 0 and the “Number … for physician's global assessment” value ([3]; Week 2 score 2, Week 0 score 0) was 0. For the same compound, the “Number … for physician's global assessment” value ([3]; Week 2 score 2, Week 0 score 1) was 0, the “Number … for physician's global assessment” value ([3]; Week 2 score 2, Week 0 score 2) was 26 and the “Number … for physician's global assessment” value ([3]; Week 2 score 2, Week 0 score 3) was 0. For the same compound, the “Number … for physician's global assessment” value ([3]; Week 2 score 3, Week 0 score 0) was 0, the “Number … for physician's global assessment” value ([3]; Week 2 score 3, Week 0 score 1) was 0 and the “Number … for physician's global assessment” value ([3]; Week 2 score 3, Week 0 score 2) was 0. The “Number … for physician's global assessment” value ([3]; Week 2 score 3, Week 0 score 3) was 0, the “Number … for physician's global assessment” value ([3]; Week 4 score 0, Week 0 score 0) was 0 and the “Number … for physician's global assessment” value ([3]; Week 4 score 0, Week 0 score 1) was 0. The “Number … for physician's global assessment” value ([3]; Week 4 score 0, Week 0 score 2) was 7, the “Number … for physician's global assessment” value ([3]; Week 4 score 0, Week 0 score 3) was 0 and the “Number … for physician's global assessment” value ([3]; Week 4 score 1, Week 0 score 0) was 0. For the same compound, the “Number … for physician's global assessment” value ([3]; Week 4 score 1, Week 0 score 1) was 3, the “Number … for physician's global assessment” value ([3]; Week 4 score 1, Week 0 score 2) was 23 and the “Number … for physician's global assessment” value ([3]; Week 4 score 1, Week 0 score 3) was 0. For the same compound, the “Number … for physician's global assessment” value ([3]; Week 4 score 2, Week 0 score 0) was 0, the “Number … for physician's global assessment” value ([3]; Week 4 score 2, Week 0 score 1) was 0 and the “Number … for physician's global assessment” value ([3]; Week 4 score 2, Week 0 score 2) was 18. For the same compound, the “Number … for physician's global assessment” value ([3]; Week 4 score 2, Week 0 score 3) was 0, the “Number … for physician's global assessment” value ([3]; Week 4 score 3, Week 0 score 0) was 0 and the “Number … for physician's global assessment” value ([3]; Week 4 score 3, Week 0 score 1) was 0. For the same compound, the “Number … for physician's global assessment” value ([3]; Week 4 score 3, Week 0 score 2) was 0, the “Number … for physician's global assessment” value ([3]; Week 4 score 3, Week 0 score 3) was 0 and the “Number … for physician's global assessment” value ([3]; Week 8 score 0, Week 0 score 0) was 0. For the same compound, the “Number … for physician's global assessment” value ([3]; Week 8 score 0, Week 0 score 1) was 1, the “Number … for physician's global assessment” value ([3]; Week 8 score 0, Week 0 score 2) was 6 and the “Number … for physician's global assessment” value ([3]; Week 8 score 0, Week 0 score 3) was 0. The “Number … for physician's global assessment” value ([3]; Week 8 score 1, Week 0 score 0) was 0, the “Number … for physician's global assessment” value ([3]; Week 8 score 1, Week 0 score 1) was 2 and the “Number … for physician's global assessment” value ([3]; Week 8 score 1, Week 0 score 2) was 28. For the same compound, the “Number … for physician's global assessment” value ([3]; Week 8 score 1, Week 0 score 3) was 0, the “Number … for physician's global assessment” value ([3]; Week 8 score 2, Week 0 score 0) was 0 and the “Number … for physician's global assessment” value ([3]; Week 8 score 2, Week 0 score 1) was 0. The “Number … for physician's global assessment” value ([3]; Week 8 score 2, Week 0 score 2) was 14, the “Number … for physician's global assessment” value ([3]; Week 8 score 2, Week 0 score 3) was 0 and the “Number … for physician's global assessment” value ([3]; Week 8 score 3, Week 0 score 0) was 0. For the same compound, the “Number … for physician's global assessment” value ([3]; Week 8 score 3, Week 0 score 1) was 0, the “Number … for physician's global assessment” value ([3]; Week 8 score 3, Week 0 score 2) was 0 and the “Number … for physician's global assessment” value ([3]; Week 8 score 3, Week 0 score 3) was 0.
